Measurements published in US9512180B2, “Compstatin analogs” (THE REGENTS OF THE UNIVERSITY OF CALIFORNIA, priority 2012, dated 2016).

Columns and labels:
[1] = RP-HPLC relative lipophilicity (retention factor k, log k); assay type: physicochemical
Method: The effect of the hydrophobic content of compstatin family peptides on relative lipophilicity was evaluated using RP-HPLC, a widely applied indirect technique for the determination of the lipophilicity of drugs and drug candidates. The determination of log P by RP-HPLC is based on the measurement of the retention factor k between the mobile and stationary phase (Eq. 7) of the investigated compound:
[formula] where tR is the retention time of the analyte, and to is the elution time of an unretained analyte. The logarithm of the retention factor is linearly correlated with the logarithm of the partition coefficient log P=a log k+b (8). where a and b are the slope and intercept of the linear equation.
The determination of log P values requires calibration using structurally related compounds, and is beyond the scope of this study. Instead the log k values were used to indicate the relative lipophilicities of this compstatin peptide family.
HPLC experiments were carried out using an Agilent 1100 HPLC with UV detection at 280 nm at 25° C. Separations were performed on a Waters (Milford, Mass.) 4.6×150 mm XTerra MS C18 column with 5 μm pore size using a mobile phase of A: 10 mM phosphate buffer pH=7.4 containing 1% TFA, and B: acetonitrile. The purity of the peptides was verified by an isocratic separation at 28% B and a flow rate of 1 mL/min. Solutions containing 0.6-0.8 mg/mL of Peptides I, III, VI, IX and the parent peptide were prepared in methanol and diluted 5-times with the eluent. All five peptides eluted as single peaks indicating a high degree of purity (FIG. 10).
For the determination of the relative lipophilicities a solution containing each of the peptides was prepared from the stock solutions and injected in triplicate. […] A 0.5 mg/mL solution of aspartic acid was used as the unretained analyte for the determination of the column dead time, 1.439±0.003 min.
RP-HPLC was used to measure the hydrophobicity/lipophilicity content of the compstatin family peptides. The retention of a compound in RP-HPLC depends on its hydrophobicity/lipophilicity content, and is correlated to the octanol-water partition ratio. Lipophilicity describes the partitioning of a compound between an aqueous and a lipidic/hydrophobic environment, and is an essential physicochemical parameter to determine pharmacokinetic behavior according to ADME (absorption, distribution, metabolism, excretion) characterization. Because the compstatin family peptides consist of a hydrophobic and a polar surface, their ability to bind to the hydrophobic cavity of C3, while maintaining a solvent-exposed face has been evaluated here as lipohilicity content, measured by RP-HPLC. In addition, lipohilicity is inversely proportional to aqueous solubility, and therefore can be used to estimate solubility of the peptides in their free (unbound) state.

[2] = Aqueous solubility by concentration measurement (absorbance at 280 nm) of saturated peptide solutions; assay type: physicochemical; settings: saturated peptide solutions, absorbance at 280 nm; read-out: approximate aqueous solubility
Method: The relative lipophilicities of Peptides I, III, VI, IX, and Parent are inversely consistent with solubilities as determined via concentration measurement (absorbance at 280 nm) of saturated peptide solutions, with Peptides I, III, and Parent having approximate aqueous solubilities of >1 mM, Peptide VI>500 μM, and Peptide IX<500 μM.

rC3 = rC3 (Rattus norvegicus, UniProt P01026); assay: Experimental activity against rC3 (method not described)
Chain of rC3 (P01026 25-1663): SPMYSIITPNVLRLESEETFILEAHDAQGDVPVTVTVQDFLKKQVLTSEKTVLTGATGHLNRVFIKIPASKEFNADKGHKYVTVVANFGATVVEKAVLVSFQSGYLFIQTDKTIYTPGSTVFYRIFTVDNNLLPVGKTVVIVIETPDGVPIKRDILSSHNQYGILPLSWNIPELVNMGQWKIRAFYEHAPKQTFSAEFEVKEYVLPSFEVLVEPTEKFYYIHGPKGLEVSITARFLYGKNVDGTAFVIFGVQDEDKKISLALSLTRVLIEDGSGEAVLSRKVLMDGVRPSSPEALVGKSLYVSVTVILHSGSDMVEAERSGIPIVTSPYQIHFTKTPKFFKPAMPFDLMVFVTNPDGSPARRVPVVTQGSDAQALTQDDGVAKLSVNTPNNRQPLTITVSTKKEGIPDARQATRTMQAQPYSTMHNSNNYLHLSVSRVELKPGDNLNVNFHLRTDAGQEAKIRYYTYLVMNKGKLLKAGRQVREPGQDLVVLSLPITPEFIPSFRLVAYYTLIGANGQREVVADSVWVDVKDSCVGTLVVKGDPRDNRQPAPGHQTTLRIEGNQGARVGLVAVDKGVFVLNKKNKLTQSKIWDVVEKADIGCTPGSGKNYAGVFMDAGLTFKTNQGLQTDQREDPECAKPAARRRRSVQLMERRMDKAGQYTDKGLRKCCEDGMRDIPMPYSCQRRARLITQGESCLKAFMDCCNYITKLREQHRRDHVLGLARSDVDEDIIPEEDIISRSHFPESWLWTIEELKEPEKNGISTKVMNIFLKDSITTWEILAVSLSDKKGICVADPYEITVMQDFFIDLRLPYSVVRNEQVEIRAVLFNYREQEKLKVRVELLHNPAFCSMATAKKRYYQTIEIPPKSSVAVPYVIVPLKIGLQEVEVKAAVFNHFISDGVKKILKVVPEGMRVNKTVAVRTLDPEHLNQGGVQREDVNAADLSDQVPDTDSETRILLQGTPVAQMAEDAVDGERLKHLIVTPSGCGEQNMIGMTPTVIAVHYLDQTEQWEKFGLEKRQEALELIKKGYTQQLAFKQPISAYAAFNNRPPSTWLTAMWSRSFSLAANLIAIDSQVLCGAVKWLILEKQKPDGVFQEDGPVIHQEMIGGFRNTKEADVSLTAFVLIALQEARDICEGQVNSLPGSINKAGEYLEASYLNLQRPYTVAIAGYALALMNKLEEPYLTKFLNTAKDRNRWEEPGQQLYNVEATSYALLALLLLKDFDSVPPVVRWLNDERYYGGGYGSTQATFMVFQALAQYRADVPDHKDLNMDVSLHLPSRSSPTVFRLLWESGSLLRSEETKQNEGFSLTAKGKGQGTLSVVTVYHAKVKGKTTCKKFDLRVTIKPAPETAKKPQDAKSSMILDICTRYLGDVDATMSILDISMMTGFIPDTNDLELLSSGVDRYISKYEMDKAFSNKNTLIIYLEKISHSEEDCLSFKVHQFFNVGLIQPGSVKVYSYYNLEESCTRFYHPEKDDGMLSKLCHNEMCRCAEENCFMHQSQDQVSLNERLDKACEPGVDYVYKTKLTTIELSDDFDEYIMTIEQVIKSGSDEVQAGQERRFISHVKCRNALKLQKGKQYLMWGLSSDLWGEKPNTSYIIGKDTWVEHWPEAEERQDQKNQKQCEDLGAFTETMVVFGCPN

For `CC[C@H](C)[C@H](NC(C)=O)C(=O)N[C@H]1CSSC[C@@H](C(=O)N[C@H](C(N)=O)[C@@H](C)O)NC(=O)[C@H](CCCNC(=N)N)NC(=O)[C@H](Cc2c[nH]cn2)NC(=O)[C@H](C)NC(=O)CNC(=O)[C@H](Cc2c[nH]c3ccccc23)NC(=O)[C@H](CC(=O)O)NC(=O)[C@H](CCC(N)=O)NC(=O)[C@H](Cc2c[nH]c3ccccc23)NC(=O)[C@H](C(C)C)NC1=O` [Peptide IX, Ac- ICV WQDWGA HRCT-NH2, reference compound], the “Retention factor (k)” value [1] was 11.429, the logk [1] was 1.058 and the solubility [2] was < 500 µM. The “activity against rC3 (in words)” value (rC3) was “inactive”.
